# Active and inactive are the calls of the source. The rule behind the calls is not given here.
# How the values were obtained:
# [1] = system: RAW264.7; experiment: Inhibition of macrophage foam cell formation in mouse RAW264.7 cells assessed as reduction in ox-LDL induced red lipid droplets formation at 50 uM preincubated for 10 mins followed by ox-LDL stimulation and measured after 24 hrs by oil red O staining based inverted microscopy analysis; assay type: functional
# [2] = system: RAW264.7; experiment: Anti-inflammatory activity in mouse RAW264.7 cells assessed as decrease in ox-LDL induced inflammatory reaction by measuring increase in IL-10 production preincubated for 10 mins followed by ox-LDL stimulation and measured after 24 hrs; assay type: functional, cell-based; details: dose microM 10-50, time 10.0 min
# [3] = system: HUVEC; experiment: Anti-atherosclerotic activity against ox-LDL induced cell damage in human HUVEC cells assessed as reduction in late apoptotic and death cells preincubated for 10 mins followed by ox-LDL stimulation and measured after 24 hrs by PI staining based fluorescence microscopic analysis; assay type: functional
# [4] = system: HUVEC; experiment: Anti-atherosclerotic activity against ox-LDL induced cell damage in human HUVEC cells assessed as reduction in early apoptotic cells by measuring increase in mitochondrial membrane potential preincubated for 10 mins followed by ox-LDL stimulation and measured after 24 hrs by JC-1 staining based fluorescence microscopic analysis; assay type: functional
# [5] = system: HUVEC; experiment: Cytotoxicity against human HUVEC cells assessed as reduction in cell viability after 48 hrs by MTT assay; assay type: cell-based
# [6] = system: RAW264.7; experiment: Anti-inflammatory activity in mouse RAW264.7 cells assessed as decrease in ox-LDL induced inflammatory reaction by measuring decrease in TNF-alpha production preincubated for 10 mins followed by ox-LDL stimulation and measured after 24 hrs; assay type: functional, cell-based; details: dose microM 10-50, time 10.0 min
# [7] = system: HUVEC; experiment: Anti-atherosclerotic activity against ox-LDL induced apoptosis in human HUVEC cells assessed as reduction in caspase-3 expression at 10 to 50 uM preincubated for 10 mins followed by ox-LDL stimulation and measured after 24 hrs by ELISA; assay type: functional, cell-based; details: dose microM 10-50, time 10.0 min
# [8] = Prodrug release in phosphate buffer containing L-cysteine assessed as H2S release by measuring H2S releasing half-life at 60 uM by methylene blue method; assay type: ADME
# [9] = system: RAW264.7; experiment: Anti-atherosclerotic activity in mouse RAW264.7 cells assessed as decrease in ox-LDL induced PI3K protein expression at 10 to 50 uM preincubated for 10 mins followed by ox-LDL stimulation and measured after 24 hrs by Western blot analysis; assay type: functional, cell-based; details: dose microM 10-50, time 10.0 min
# [10] = system: RAW264.7; experiment: Inhibition of macrophage foam cell formation in mouse RAW264.7 cells assessed as reduction in ox-LDL induced red lipid droplets formation preincubated for 10 mins followed by ox-LDL stimulation and measured after 24 hrs by oil red O staining based inverted microscopy analysis; assay type: functional; details: dose microM 10-50, time 10.0 min
# [11] = system: HUVEC; experiment: Cytoprotective activity against ox-LDL induced cell damage in human HUVEC cells assessed as cell viability at 100 uM preincubated for 10 mins followed by ox-LDL stimulation measured after 24 hrs by MTT assay (reference value: 73.1%); assay type: functional; details: read-out: Activity
# [12] = system: RAW264.7; experiment: Anti-atherosclerotic activity in mouse RAW264.7 cells assessed as decrease in ox-LDL induced NFkappaB protein expression at 10 to 50 uM preincubated for 10 mins followed by ox-LDL stimulation and measured after 24 hrs by Western blot analysis; assay type: functional, cell-based; details: dose microM 10-50, time 10.0 min
# [13] = system: RAW264.7; experiment: Antioxidant activity in mouse RAW264.7 cells assessed as reduction in ox-LDL induced ROS accumulation at 10 to 50 uM preincubated for 10 mins followed by ox-LDL stimulation and measured after 24 hrs by DCFH-DA staining based fluorescence microscopic analysis; assay type: functional, cell-based; details: dose microM 10-50, time 10.0 min
# [14] = system: HUVEC; experiment: Anti-atherosclerotic activity against ox-LDL induced apoptosis in human HUVEC cells assessed as reduction in Bax expression at 10 to 50 uM preincubated for 10 mins followed by ox-LDL stimulation and measured after 24 hrs by ELISA; assay type: functional, cell-based; details: dose microM 10-50, time 10.0 min
# [15] = system: RAW264.7; experiment: (§1) Anti-atherosclerotic activity in mouse RAW264.7 cells assessed as decrease in ox-LDL induced intracellular lipid accumulation by measuring reduction in CE/TC ratio at 50 uM preincubated for 10 mins followed by ox-LDL stimulation and measured after 24 hrs by colorimetric method relative to control; assay type: functional; details: RAW264.7, 10 min
# [16] = system: RAW264.7; experiment: as §1, with “total cholesterol level” for “CE/TC ratio”; assay type: functional; details: RAW264.7, 10 min
# [17] = system: HUVEC; experiment: Anti-atherosclerotic activity against ox-LDL induced cell damage in human HUVEC cells assessed as reduction in nuclear pyknosis and apoptotic bodies formation preincubated for 10 mins followed by ox-LDL stimulation and measured after 24 hrs by Hoechst 33342 staining based fluorescence microscopy; assay type: functional
# [18] = system: RAW264.7; experiment: Anti-atherosclerotic activity in mouse RAW264.7 cells assessed as decrease in ox-LDL induced AKT protein expression at 10 to 50 uM preincubated for 10 mins followed by ox-LDL stimulation and measured after 24 hrs by Western blot analysis; assay type: functional, cell-based; details: dose microM 10-50, time 10.0 min
# [19] = system: HUVEC; experiment: Cytotoxicity against human HUVEC cells assessed as reduction in cell viability at 10 to 100 uM by MTT assay; assay type: cell-based; details: dose 10-100 µM
# [20] = system: RAW264.7; experiment: Antioxidant activity in mouse RAW264.7 cells assessed as reduction in ox-LDL-induced oxidative stress by measuring increase in SOD level at 50 uM preincubated for 10 mins followed by ox-LDL stimulation and measured after 24 hrs relative to control; assay type: functional; design: scale not given: the % may be the effect or the level left
# [21] = system: H9c2; experiment: Cytotoxicity against rat H9c2 cells assessed as reduction in cell viability after 48 hrs by MTT assay; assay type: cell-based; details: H9c2, 48 h
# [22] = system: RAW264.7; experiment: as §1, with “free cholesterol level” for “CE/TC ratio”; assay type: functional; details: RAW264.7, 10 min
# [23] = system: HUVEC; experiment: Anti-atherosclerotic activity against ox-LDL induced apoptosis in human HUVEC cells assessed as increase in bcl-2 expression at 50 uM preincubated for 10 mins followed by ox-LDL stimulation and measured after 24 hrs by ELISA; assay type: functional
# [24] = system: RAW264.7; experiment: Cytotoxicity against mouse RAW264.7 cells assessed as reduction in cell viability after 48 hrs by MTT assay; assay type: cell-based; details: RAW264.7, 48 h
# [25] = system: RAW264.7; experiment: Antioxidant activity in mouse RAW264.7 cells assessed as reduction in ox-LDL induced oxidative stress by measuring decrease in MDA level at 50 uM preincubated for 10 mins followed by ox-LDL stimulation and measured after 24 hrs relative to control; assay type: functional; details: RAW264.7, 10 min
# [26] = system: HUVEC; experiment: Cytoprotective activity against ox-LDL induced cell damage in human HUVEC cells assessed as increase in cell viability at 50 uM preincubated for 10 mins followed by ox-LDL stimulation measured after 24 hrs by MTT assay; assay type: functional, cell-based
# [27] = system: WI-38; experiment: Cytotoxicity against human WI38 cells assessed as reduction in cell viability after 48 hrs by MTT assay; assay type: cell-based; details: WI-38, 48 h
smiles,measurement,setting,value
CC(C)(Oc1ccc(Cl)cc1)C(=O)OCCCOC(=O)CCCCC1CCSS1 (configuration not stated),inhibition,[1],Active
same,Activity,[2],Dose-dependent effect
same,Activity,[3],Active
same,Activity,[4],Active
same,IC50,[5],> 800 µM
same,Activity,[6],Dose-dependent effect
same,Activity,[7],Active
same,t1/2,[8],21.3 min
same,Activity,[9],Active
same,inhibition,[10],Dose-dependent effect
same,viability at 100 µM,[11],89.2%
same,Activity,[12],Active
same,Activity,[13],Active
same,Activity,[14],Active
same,inhibition at 50 µM,[15],30.9%
same,inhibition at 50 µM,[16],52.4%
same,Activity,[17],Active
same,Activity,[18],Active
same,Activity,[19],Non-Toxic
same,Activity,[20],45.4%
same,IC50,[21],> 800 µM
same,inhibition at 50 µM,[22],25.4%
same,Activity,[23],31.9%
same,IC50,[24],> 800 µM
same,inhibition at 50 µM,[25],41%
same,Activity,[26],Active
same,IC50,[27],> 800 µM

# From ChEMBL document CHEMBL4665663, “Anti-atherosclerosis effect of HS donors based on nicotinic acid and chlorfibrate structures” (Bioorg Med Chem, 2019)
